Data set [1] addresses peripheral 5-HT2A receptors (Rattus norvegicus (Rat), UniProt P14842). The settings on record: cited from earlier work; for 5-methoxytryptamine-induced hyperglycemia: pretreatment.
Data set [2] concerns the target T1, CYP2D6 (Homo sapiens (Human), UniProt P10635). The settings on record: DEX O-demethylation; read-out: estimated mean IC50; cited from earlier work.
The conditions of data set [3]: cited from earlier work.
Data set [4] has as its target 5-HT2A receptors (Homo sapiens (Human), UniProt P28223). In words: 5-HT2A receptor antagonist radioligand binding ([3H]ketanserin). The settings on record: for pKi / Ki: Ki calculated using the Cheng Prusoff equation; for IC50: inhibition of [3H]ketanserin binding, HEK-293 cells expressing human recombinant 5HT2A receptor. Here is the method:
HEK-293 cells expressing human recombinant 5HT2A receptor were used in the antagonist radioligand binding studies. […] The inhibition constants (Ki) were calculated using the Cheng Prusoff equation. Both sarpogrelate enantiomers were potent inhibitors of [3H]ketanserin binding (Table 1). M1 enantiomers also potently bind to 5HT2A receptors with the Ki values that are approximately one order of magnitude higher than those of sarpogrelate enantiomers (Table 1). There are no meaningful differences between enantiomers in terms of 5-HT2A receptor binding for sarpogrelate or its main metabolite.
5HT2a ASSAY: Evaluation of the affinity of compounds for the human 5-HT2A receptor in transfected HEK-293 cells determined in a radioligand binding assay. Cell membrane homogenates (30-50 μg protein) were incubated 15 min at 37° C. with 0.5 nM [3H]ketanserin in the absence or presence of the test compound in a buffer containing 50 mM Tris-HCl (pH 7.4). Nonspecific binding was determined in the presence of 1 μM ketanserin. Following incubation, the samples were filtered rapidly under vacuum through glass fiber filters presoaked with 0.3% PEI and rinsed several times with ice-cold 50 mM Tris-HCl using a 96-sample cell harvester. The filters were dried then counted for radioactivity in a scintillation counter using a scintillation cocktail (WO2005013952A1, EP1500391A1[ab1], incorporated in its entirety by reference).

Data set [5] concerns the target T1, CYP2D6. As to the kind of experiment: Dextromethorphan O-demethylase activity in human liver microsomes. The format is biochemical. The settings on record: CYP 2D6 activity; pooled human liver microsomes 0.25 mg/ml; read-out: IC50. Here is the method:
Dextromethorphan O-demethylase activity was determined in human liver microsomes. […] The incubation mixtures contained pooled human liver microsomes (final concentrations: 0.25 mg/ml), dextromethorphan, and a NADPH-generating system (1.3 mM NADP+, 3.3 mM glucose 6-phosphate, 3.3 mM MgCl2, and 0.4 U/ml glucose-6-phosphate dehydrogenase). […] All incubations were performed in triplicate, and mean values were used for analysis. […] Both sarpogrelate enantiomers inhibited CYP2D6-mediated dextromethorphan O-demethylation (Table 4).

A short description of data set [6]: Inhibition of dextromethorphan metabolism in vivo (dextromethorphan plasma levels after sarpogrelate). Further details: species or system rat. The settings on record: for Dextromethorphan AUC: dextromethorphan 50 mg/kg oral gavage, AUC 0-6 h, rat plasma. As for the experimental part:
In a separate set of studies, ability of sarpogrelate to inhibit dextromethorphan metabolism in vivo was studied in rats. Adult male Sprague Dawley rats (RjHan:SD) purchased from Janvier Labs (France) were housed in a climate-controlled room under a 12 h light/12 h dark cycle with ad libitum access to food and water. Two-three days prior to blood sampling, rats were provided with a catheter in the jugular vein and, thereafter, rats treated once with Carprofen (5 mg/kg) directly after surgery and catheters were rinsed daily with Heparin (500 IE/ml) (20 μl/rat/day). On the day of the experiment, dextromethorphan (50 mg/kg) was administered by oral gavage, immediately followed by intravenous bolus injection of sarpogrelate (1, 3 or 10 mg/kg; racemate or one of the enantiomers) or vehicle via vascular access port at t=0 h. Blood samples were collected at four time points until 6 hours post dextromethorphan administration. Sample size was 80 μl Li-heparin whole blood/time point, i.e. 40 μl Li-heparin plasma/time point. Whole blood samples were stored on ice until centrifugation (10 min at 3000 g, 4° C.). Plasma was prepared within 45 min after collection, frozen at −20° C. and stored at this temperature until processed for LC-MS analysis.

In data set [7] the test system is PCP-induced hyperactivity. In words: Phencyclidine-induced hyperactivity in rats (sarpogrelate and dextromethorphan). The data set is classed as in vivo, rat. The settings on record: in the presence of dextromethorphan; racemate 3 mg/kg, (−) sarpogrelate 1 or 3 mg/kg i.p.; PCP 5 mg/kg s.c.; 60-120 min.
Data set [8] has as its system MK-801-induced hyperactivity. As to the kind of experiment: MK-801-induced hyperactivity in rats. The format is in vivo, rat. As for the experimental part:
To confirm the ability of M1 enantiomers to induce effects that are relevant to CNS diseases and that are known for 5-HT2A receptor […], separate groups of female Wistar rats (n=6-9), housed 4-5 per cage under standard colony room conditions with free access to food and water, were pretreated intraperitoneally with varying doses of one of the two M1 enantiomers (0, 3 or 10 mg/kg) followed 15 minutes later by 0.1 mg/kg of MK801 or its vehicle and immediately thereafter placed into computer-controlled motor activity recording chambers (25×35.5×34 cm, L×W×H; transparent Plexiglas walls and a non-transparent plastic floor; enclosed within sound-attenuating ventilated cubicles) for 60 minutes, during which infrared photocell interruptions (5 cm and 14 cm off the floor) were recorded as a measure of motor activity. MK-801 is a phencyclidine-like NMDA receptor channel blocked commonly used in psychopharmacology research on novel therapies including novel antipsychotics.

Data set [9] has as its system locomotor activity, stereotypy, ataxia. The settings on record: DO 15-120 mg/kg, DEX 15-120 mg/kg, PCP 1.25-20 mg/kg; rats; cited from earlier work.
The subject of data set [10] is behavioral disturbances in Alzheimer's disease. The settings on record: human, in vivo; cited from earlier work.
Data set [11] relates to NPI scores and sleep in patients with AD. The settings on record: human, in vivo; cited from earlier work.
The target of data set [12] is T1, CYP2D6. The settings on record: dextromethorphan as substrate; cited from earlier work.
Where [13] appears, read: sarpogrelate dose 1 mg/kg i.v. bolus.
The mark [14] stands for this setting: sarpogrelate dose 3 mg/kg i.v. bolus.
Setting [15] is: sarpogrelate dose 10 mg/kg i.v. bolus.

Each structure is given as a SMILES string. Counter-ions that a name gives are not always drawn. Like-named read-outs stand apart in the source and are kept apart here.

T1 sequence (P10635 whole entry): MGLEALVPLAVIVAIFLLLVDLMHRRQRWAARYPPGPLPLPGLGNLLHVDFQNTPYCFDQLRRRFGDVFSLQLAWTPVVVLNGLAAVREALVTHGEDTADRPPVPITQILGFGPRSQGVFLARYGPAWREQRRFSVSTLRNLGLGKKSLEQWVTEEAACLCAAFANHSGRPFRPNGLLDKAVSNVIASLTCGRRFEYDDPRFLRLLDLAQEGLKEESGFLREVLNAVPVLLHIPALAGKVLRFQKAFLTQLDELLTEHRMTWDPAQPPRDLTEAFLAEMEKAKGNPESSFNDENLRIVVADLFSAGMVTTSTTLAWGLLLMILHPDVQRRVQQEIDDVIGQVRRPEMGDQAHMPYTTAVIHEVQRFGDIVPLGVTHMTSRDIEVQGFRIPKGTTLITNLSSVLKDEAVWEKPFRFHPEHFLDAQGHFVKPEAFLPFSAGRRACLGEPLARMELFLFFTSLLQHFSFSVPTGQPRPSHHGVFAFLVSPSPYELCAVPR
5-HT2A receptors, sequence (P28223 whole entry): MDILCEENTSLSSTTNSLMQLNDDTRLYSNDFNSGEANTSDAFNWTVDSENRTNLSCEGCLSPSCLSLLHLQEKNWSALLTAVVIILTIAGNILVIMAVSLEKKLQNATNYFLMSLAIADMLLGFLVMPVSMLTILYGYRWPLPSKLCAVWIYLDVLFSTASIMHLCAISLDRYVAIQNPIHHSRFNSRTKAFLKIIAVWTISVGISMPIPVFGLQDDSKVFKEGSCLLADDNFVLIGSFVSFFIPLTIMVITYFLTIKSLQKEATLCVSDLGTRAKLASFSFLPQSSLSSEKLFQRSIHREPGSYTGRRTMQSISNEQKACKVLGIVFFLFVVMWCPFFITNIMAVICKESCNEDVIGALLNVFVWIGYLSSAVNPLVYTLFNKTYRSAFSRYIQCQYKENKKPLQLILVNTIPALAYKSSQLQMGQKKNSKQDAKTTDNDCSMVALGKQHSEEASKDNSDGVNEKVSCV

For the molecule `COc1ccc2[nH]cc(CCN)c2c1` [5-methoxytryptamine], the blood glucose entry in data set [1] (agonist given alone) was “induced hyperglycemia”.

Regarding `CN1CCN(CC/C=C2/c3ccccc3Sc3ccc(S(=O)(=O)N(C)C)cc32)CC1` [Cisthiothixene], the IC50 in data set [2] is 137000 nM.

As to `COc1cccc(CCc2ccccc2OCC(CN(C)C)OC(=O)CCC(=O)O)c1` (stereo not shown) [Compound 50 hydrochloride, Butanedioic acid, mono(2-(dimethylamino)-1-((2-(2-(3-methoxyphenyl)ethyl)phenoxy)methyl)ethyl) ester, hydrochloride], the mortality entry in [3] (5, 20, 80 and 320 mg/kg/day orally, 52 weeks, beagle dogs) is reported as “No animal died or was sacrificed in extremis”. For the same molecule, in data set [3] (dog, in vivo, po), the Food consumption entry is “inhibited in females receiving 80 mg/kg/day and over”; the biochemical examination result is “an increase in potassium in males receiving 80 mg/kg/day and over, and females receiving 320 mg/kg/day”; the “electrocardiographic or ophthalmoscopic examination” value was “no treatment related change”; the “general conditions: emesis” value was “emesis was noted in males and females receiving 320 mg/kg/day and males receiving 80 mg/kg/day”. Moreover, in data set [3] (dog, in vivo, po), the “general conditions: salivation” value is on record as “salivation in females receiving 320 mg/kg/day”, the hematological examination result is given as “an increase in a platelet count in males receiving 320 mg/kg/day”, the “histopathological examination of the kidney” value was “fatty degeneration was revealed in the cortico-medullary border zone of the kidney in males receiving 320 mg/kg/day” and the urinalysis result is recorded as “an increase in protein was revealed in females receiving 320 mg/kg/day”. Besides, the water consumption entry in [3] (dog, in vivo, po) was “inhibition of water consumption”.

Take `COc1cccc(CCc2ccccc2OC[C@H](CN(C)C)OC(=O)CCC(=O)O)c1` [Compound 51]: the pKi in data set [4] is 8.4. Further, the values for the IC50 in data set [4] and in data set [5] were 7.5 nM and 580 nM, respectively. In addition, the “Fold increase (relative to vehicle) of dextromethorphan AUC” value in [6] (sarpogrelate dose 1 mg/kg) is reported as 1.4 fold; in data set [6] (sarpogrelate dose 3 mg/kg) it was 3.3 fold; in data set [6] (sarpogrelate dose 10 mg/kg) it was 6.9 fold. The “Dextromethorphan AUC” value in [6] (setting [13]) worked out at 827.0 ng·h/mL; in data set [6] (setting [14]) it was 2021.5 ng·h/mL; in data set [6] (setting [15]), 4154.3 ng·h/mL.

As for `COc1cccc(CCc2ccccc2OCC(CN(C)C)OC(=O)CCC(=O)O)c1` (stereo not shown) [Compound 52], in [4], the pKi is on record as 8.2. Moreover, the 50% inhibitory concentration (IC50) in data set [4] came out at 11 nM; in data set [5], 1300 nM. Also, the “Fold increase (relative to vehicle) of dextromethorphan AUC” value is reported as 1.5 fold in [6] (sarpogrelate dose 1 mg/kg), 2.7 fold in [6] (sarpogrelate dose 3 mg/kg) and 5.3 fold in [6] (sarpogrelate dose 10 mg/kg). The “Dextromethorphan AUC” value is 921.4 ng·h/mL in data set [6] (setting [13]), 1649.5 ng·h/mL in data set [6] (setting [14]) and 3195.9 ng·h/mL in data set [6] (setting [15]). Moreover, the “motor hyperactivity in PCP-treated rats” value in data set [7] is given as “inhibited motor hyperactivity in PCP-treated rats”.

With `COc1cccc(CCc2ccccc2OC[C@@H](O)CN(C)C)c1` [Compound 147, (S)-1-(dimethylamino)-3-(2-(3-methoxyphenethyl)phenoxy)propan-2-ol], in data set [4], the Ki was 0.794 nM and the half-inhibitory concentration (IC50) is 1.2 nM. Besides, in data set [5], the IC50 came to 38 nM.

As for `COc1cccc(CCc2ccccc2OC[C@H](O)CN(C)C)c1` [Compound 148, (R)-1-(dimethylamino)-3-(2-(3-methoxyphenethyl)phenoxy) propan-2-ol], in [4], the inhibition constant Ki is 0.631 nM. Moreover, the values for the IC50 in [4] and in data set [5] were 1.3 nM and 96 nM, respectively. In data set [8] (M1 enantiomer 3 or 10 mg/kg i.p., 15 min before 0.1 mg/kg MK801, female Wistar rats), the “hyperactivity induced by MK-801 (motor activity, 60 min)” value was “reduced hyperactivity induced by MK-801”.

Take `COc1cccc([C@H](O)C2CCN(CCc3ccc(F)cc3)CC2)c1OC` [M-100,907]: in data set [8] (3 mg/kg), the “hyperactivity induced by MK-801 (motor activity, 60 min)” value is on record as “reduced hyperactivity induced by MK-801”.

Turning to `c1ccc(C2(N3CCCCC3)CCCCC2)cc1` [PCP, 1-(1-phenylcyclohexyl)piperidine], the “behavioral effects given alone (locomotor hyperactivity, stereotypy, ataxia)” value in [9] is “dose-dependent locomotor hyperactivity, stereotypy and ataxia”.

For `O=C(c1ccc(F)cc1)C1CCN(CCn2c(=O)[nH]c3ccccc3c2=O)CC1` [ketanserin], the 5-methoxytryptamine-induced hyperglycemia entry in data set [1] is “prevented”.

As for `CC12CC3CC(C)(C1)CC(N)(C3)C2` [memantine, 3,5-dimethyladamantan-1-amine], in data set [10], the agitation/aggression entry was “significant improvement in agitation/aggression”, the delusions entry was “significant improvement in delusions”, the disinhibition result is reported as “significant improvement in disinhibition” and the irritability/lability entry was “superior to control in irritability/lability”. In addition, the “nighttime disturbance/diurnal rhythm disturbances” value in data set [10] is “significant improvement in nighttime disturbance/diurnal rhythm disturbances”. Also, in data set [11], the fragmented sleep result is reported as “effective in reducing fragmented sleep”, the “scores of NPI item for irritability/lability” value is “significantly decreases the scores of NPI item for irritability/lability” and the “scores of NPI subscale for anxiety” value is “significantly decreases in the scores of NPI subscale for anxiety”.

Take `C=C[C@H]1C[N@@]2CC[C@H]1C[C@@H]2[C@@H](O)c1ccnc2ccc(OC)cc12` [quinidine]: the “inhibition type (Dixon plots)” value in data set [12] is given as “fit well to all competitive inhibition types”.

As for `Cc1nc2n(c(=O)c1CCN1CCC(c3noc4cc(F)ccc34)CC1)CCCC2` [risperidone], the IC50 in [2] was 39100 nM.

For the molecule `COc1cccc(OC(C)CNC(=N)Cc2cccc(C)c2)c1` (stereo not shown) [xylamidine], in data set [1], the 5-methoxytryptamine-induced hyperglycemia result is recorded as “prevented”.

The values above are taken from patent US11478467B2 (priority 2017, dated 2022).
